We go through 11 molecules from patent US8138168B1 (Takeda Pharmaceutical Company Limited, priority 2007, dated 2012).

This assay deals with T1, Recombinant human renin (Homo sapiens, UniProt P00797).
T1 construct: isolate the active form (residues 67-406); made in house; host or cells: FreeStyle 293-F cells (transient expression of pcDNA3.1(+)/hREN)
T1 sequence (P00797 67-406): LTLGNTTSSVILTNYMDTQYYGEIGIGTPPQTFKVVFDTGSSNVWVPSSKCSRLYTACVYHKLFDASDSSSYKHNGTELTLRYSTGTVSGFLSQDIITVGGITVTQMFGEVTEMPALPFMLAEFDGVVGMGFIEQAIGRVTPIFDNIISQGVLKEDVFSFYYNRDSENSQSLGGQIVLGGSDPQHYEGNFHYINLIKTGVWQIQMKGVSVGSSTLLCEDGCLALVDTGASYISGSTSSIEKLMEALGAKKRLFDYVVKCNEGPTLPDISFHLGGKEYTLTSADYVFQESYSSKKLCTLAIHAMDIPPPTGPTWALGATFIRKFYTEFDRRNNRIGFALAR
Briefly: In vitro enzymatic activity assay of renin inhibitors (fluorogenic peptide substrate). It counts as biochemical. The following applies: read-out: IC50 of Exemplified Compounds Against Renin. In short, it runs like this: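 Recombinant human renin (3 nM final) pre-incubated 10 min at 37 °C with compounds in pH 7.4 Hepes/EDTA/DTT/0.1 mg/mL BSA/Brij35 buffer (optionally plus 2% BSA), 5% DMSO final; fluorogenic QXL520/HiLyteFluo488 peptide substrate added.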

By IC50 is commonly meant the concentration at which inhibition is half-maximal.

SMILES strings stand for the structures.

As for `COCCCn1c([C@@H]2CCCN(C(=O)C[C@H](N)Cc3ccc(-c4ccccc4)cc3)C2)nc2cccc(Cl)c21` [Compound 98, (R)-3-amino-4-(biphenyl-4-yl)-1-((R)-3-(7-chloro-1-(3-methoxypropyl)-1H-benzo[d]imidazol-2-yl)piperidin-1-yl)butan-1-one], the IC50 is under 100 nM.

`COCCCn1c([C@@H]2CCCN(C(=O)C[C@H](N)Cc3ccc(-c4ccc(N5CCNC5=O)cc4)cc3)C2)nc2ccccc21` [Compound 436, 1-(4′-((R)-2-amino-4-((R)-3-(1-(3-methoxypropyl)-1H-benzo[d]imidazol-2-yl)piperidin-1-yl)-4-oxobutyl)biphenyl-4-yl)imidazolidin-2-one]: the IC50 was under 100 nM.

On to `COCCCn1c([C@@H]2CCCN(C(=O)C[C@H](N)CNC(=O)c3cccc(N4CCCCC4)n3)C2)nc2ccccc21` [Compound 313, N-((S)-2-amino-4-((R)-3-(1-(3-methoxypropyl)-1H-benzo[d]imidazol-2-yl)piperidin-1-yl)-4-oxobutyl)-6-(piperidin-1-yl)picolinamide], for which the IC50 fell in the range of 100 to 1000 nM.

Turning to `COCCCn1c([C@@H]2CCCN(C(=O)[C@@H]3CN(C(=O)NC4CCCCC4)C[C@H]3N)C2)nc2ccccc21` [Compound 386, (3S,4R)-3-amino-N-cyclohexyl-4-((R)-3-(1-(3-methoxypropyl)-1H-benzo[d]imidazol-2-yl)piperidine-1-carbonyl)pyrrolidine-1-carboxamide], the IC50 was over 1000 nM.

`COc1cc(OC)cc([C@@H](N)CC(=O)N2CCCC(c3nc4ccccc4[nH]3)C2)c1` (stereo partly drawn) [Compound 31, (3S)-1-(3-(1H-benzo[d]imidazol-2-yl)piperidin-1-yl)-3-amino-3-(3,5-dimethoxyphenyl)propan-1-one]: the IC50 was over 1000 nM.

Consider `COCCCn1c([C@@H]2CCCN(C(=O)[C@@H]3CN(S(=O)(=O)c4cccc5c4ccn5C)C[C@H]3N)C2)nc2ccccc21` [Compound 392, ((3R,4S)-4-amino-1-(1-methyl-1H-indol-4-ylsulfonyl)pyrrolidin-3-yl)((R)-3-(1-(3-methoxypropyl)-1H-benzo[d]imidazol-2-yl)piperidin-1-yl)methanone], for which the IC50 was over 1000 nM.

Regarding `COCCCn1c([C@@H]2CCCN(C(=O)[C@@H]3CN(C(=O)Nc4ccccc4Cl)C[C@H]3N)C2)nc2ccccc21` [Compound 389, (3S,4R)-3-amino-N-(2-chlorophenyl)-4-((R)-3-(1-(3-methoxypropyl)-1H-benzo[d]imidazol-2-yl)piperidine-1-carbonyl)pyrrolidine-1-carboxamide], the IC50 is over 1000 nM.

As to `COCCCn1c([C@@H]2CCCN(C(=O)C[C@H](N)CNS(=O)(=O)c3cccc(Cl)c3)C2)nc2ccccc21` [Compound 300, N-((S)-2-amino-4-((R)-3-(1-(3-methoxypropyl)-1H-benzo[d]imidazol-2-yl)piperidin-1-yl)-4-oxobutyl)-3-chlorobenzenesulfonamide], the IC50 was in the range of 100 to 1000 nM.

`COCCCn1c([C@@H]2CCCN(C(=O)C[C@H](N)Cc3cc(F)c(F)cc3F)C2)nc2ccccc21` [Compound 86, (R)-3-amino-1((R)-3-(1-(3-methoxypropyl)-1H-benzo[d]imidazol-2-yl)piperidin-1-yl)-4-(2,4,5-trifluorophenyl)butan-1-one]: the IC50 was in the range of 100 to 1000 nM.

With `COCCCn1c([C@@H]2CCCN(C(=O)C[C@H](N)Cc3ccc(-c4ccc5c(c4)OCCN5C)cc3)C2)nc2ccccc21` [Compound 439, (R)-3-amino-1-((R)-3-(1-(3-methoxypropyl)-1H-benzo[d]imidazol-2-yl)piperidin-1-yl)-4-(4-(4-methyl-3,4-dihydro-2H-benzo[b][1,4]oxazin-7-yl)phenyl)butan-1-one], the IC50 was under 100 nM.

`O=C([C@@H]1CCCN1C1CCNCC1)N1CCCC(c2nc3ccccc3[nH]2)C1` (stereo partly drawn) [Compound 49, (3-(1H-benzo[d]imidazol-2-yl)piperidin-1-yl)((S)-1-(piperidin-4-yl)pyrrolidin-2-yl)methanone]: the IC50 is over 1000 nM.
